Target: T1, CDK2/CycE (Homo sapiens, UniProt P24941)
T1 construct: GST; purchased ProQinase GmbH (Freiburg, Germany); host or cells: insect cells (Sf9)
Test: CDK2/CycE kinase assay (TR-FRET)
Type: biochemical
Conditions: avg, read-out: CDK2 avg (IC50 [mol/l])
Text: CDK2/CycE -inhibitory activity of compounds of the present invention was quantified employing the CDK2/CycE TR-FRET assay as described in the following paragraphs.
Recombinant fusion proteins of GST and human CDK2 and of GST and human CycE, expressed in insect cells (Sf9) and purified by Glutathion-Sepharose affinity chromatography, were purchased from ProQinase GmbH (Freiburg, Germany). As substrate for the kinase reaction biotinylated peptide biotin-Ttds-YISPLKSPYKISEG (C-terminus in amid form) was used which can be purchased e.g. form the company JERINI peptide technologies (Berlin, Germany).
For the assay 50 nl of a 100fold concentrated solution of the test compound in DMSO was pipetted into a black low volume 384we11 microtiter plate (Greiner Bio-One, Frickenhausen, Germany), 2 μl of a solution of CDK2/CycE in aqueous assay buffer [50 mM Tris/HCl pH 8.0, 10 mM MgCl2, 1.0 mM dithiothreitol, 0.1 mM sodium ortho-vanadate, 0.01% (v/v) Nonidet-P40 (Sigma)] were added and the mixture was incubated for 15 min at 22° C. to allow pre-binding of the test compounds to the enzyme before the start of the kinase reaction. Then the kinase reaction was started by the addition of 3 μl of a solution of adenosine-tri-phosphate (ATP, 16.7 μM=>final conc. in the 5 μl assay volume is 10 μM) and substrate (1.25 μM=>final conc. in the 5 μl assay volume is 0.75 μM) in assay buffer and the resulting mixture was incubated for a reaction time of 25 min at 22° C. The concentration of CDK2/CycE was adjusted depending of the activity of the enzyme lot and was chosen appropriate to have the assay in the linear range, typical concentrations were in the range of 130 ng/ml. The reaction was stopped by the addition of 5 μl of a solution of TR-FRET detection reagents (0.2 μM streptavidine-XL665 [Cisbio Bioassays, Codolet, France] and 1 nM anti-RB(pSer807/pSer811)-antibody from BD Pharmingen [#558389] and 1.2 nM LANCE EU-W1024 labeled anti-mouse IgG antibody [Perkin-Elmer, product no. AD0077, as an alternative a Terbium-cryptate-labeled anti-mouse IgG antibody from Cisbio Bioassays can be used]) in an aqueous EDTA-solution (100 mM EDTA, 0.2% (w/v) bovine serum albumin in 100 mM HEPES/NaOH pH 7.0).
The resulting mixture was incubated 1 h at 22° C. to allow the formation of complex between the phosphorylated biotinylated peptide and the detection reagents. Subsequently the amount of phosphorylated substrate was evaluated by measurement of the resonance energy transfer from the Eu-chelate to the streptavidine-XL. Therefore, the fluorescence emissions at 620 nm and 665 nm after excitation at 350 nm was measured in a TR-FRET reader, e.g. a Rubystar (BMG Labtechnologies, Offenburg, Germany) or a Viewlux (Perkin-Elmer). The ratio of the emissions at 665 nm and at […] was taken as the measure for the amount of phosphorylated substrate. The data were normalised (enzyme reaction without inhibitor=0% inhibition, all other assay components but no enzyme=100% inhibition).

IC50 [µM]	SMILES
> 20	Cc1nsc(Nc2ccc(C#N)cn2)c1C(=O)Nc1ccc(NC2CCCN(C(=O)OC(C)(C)C)C2)nc1 (stereo not shown) [Example 171, tert-butyt 3-({5-[({5-[(5-cyanopyridin-2-yl)amino]-3-methyl-1,2-thiazol-4-yl}carbonyl)amino]pyridin-2-yl}amino)piperidine-1-carboxylate]
> 20	Cc1nsc(Nc2cnc(C(F)(F)F)cn2)c1C(=O)Nc1ccc(C(=O)NCCN2CCCC(F)(F)C2)cc1 [Example 153, N-(4-{[2-(3,3-difluoropiperidin-1-yl)ethyl]carbamoyl}phenyl)-3-methyl-5-{[5-(trifluoromethyl)pyrazin-2-yl]amino}-1,2-thiazole-4-carboxamide]
> 20	Cc1nsc(Nc2cnc3ccccc3n2)c1C(=O)Nc1ccc(N2CCOCC2)nc1 [Example 169, 3-methyl-N-[6-(morpholin-4-yl)pyridin-3-yl]-5-(quinoxalin-2-ylamino)-1,2-thiazole-4-carboxamide]
> 20	Cc1nsc(Nc2cncc(C(F)(F)F)n2)c1C(=O)Nc1ccc(OCC2CCCN(C(=O)OC(C)(C)C)C2)nc1 (stereo not shown) [Example 166, tert-butyl 3-{[(5-{[(3-methyl-5-{[6-(trifluoromethyl)pyrazin-2-yl]amino}-1,2-thiazol-4-yl)carbonyl]amino}pyridin-2-yl)oxy]methyl}piperidine-1-carboxylate]
> 20	Cc1nsc(Nc2cncc(C(F)(F)F)n2)c1C(=O)Nc1ccc(C(=O)NC2CCN(CC(F)(F)F)CC2)cc1 [Example 167, 3-methyl-N-(4-{[1-(2,2,2-trifluoroethyl)piperidin-4-yl]carbamoyl}phenyl)-5-{[6-(trifluoromethyl)pyrazin-2-yl]amino}-1,2-thiazole-4-carboxamide]
≥ 20	Cc1nsc(Nc2cnc(C(F)(F)F)cn2)c1C(=O)Nc1ccc(F)c(OCC2CCCN(CC(F)F)C2)c1 (stereo not shown) [Example 335, N-(3-{[1-(2,2-difluoroethyl)piperidin-3-yl]methoxy}-4-fluorophenyl)-3-methyl-5-{[5-(trifluoromethyl)pyrazin-2-yl]amino}-1,2-thiazole-4-carboxamide]
> 20	Cc1nsc(Nc2cnc3ccccc3n2)c1C(=O)Nc1ccc(C(=O)N2CCCN(CC(F)(F)F)CC2)cc1 [Example 159]
> 20	Cc1nsc(Nc2cnc3ccccc3n2)c1C(=O)Nc1ccc(NC2CC2)nc1 [Example 172, N-[6-(cyclopropylamino)pyridin-3-yl]-3-methyl-5-(quinoxalin-2-ylamino)-1,2-thiazole-4-carboxamide]
> 20	Cc1nsc(Nc2cnc3ccccc3n2)c1C(=O)Nc1ccc(C(=O)N2CCN(CC(F)F)CC2)cc1 [Example 157, N-(4-{[4-(2,2-difluoroethyl)piperazin-1-yl]carbonyl}phenyl)-3-methyl-5-(quinoxalin-2-ylamino)-1,2-thiazole-4-carboxamide]
> 20	Cc1nsc(Nc2cnc(C(F)(F)F)cn2)c1C(=O)Nc1ccc(OC2CCN(C(C)C)CC2)nc1 [Example 160, N-{6-[(1-isopropylpiperidin-4-yl)oxy]pyridin-3-yl}-3-methyl-5-{[5-(trifluoromethyl)pyrazin-2-yl]amino}-1,2-thiazole-4-carboxamide]
> 20	Cc1nsc(Nc2ccc(C#N)cn2)c1C(=O)Nc1cccc(S(C)(=O)=O)c1 [Example 150, 5-[(5-cyanopyridin-2-yl)amino]-3-methyl-N-[3-(methylsulfonyl)phenyl]-1,2-thiazole-4-carboxamide]
> 20	Cc1nsc(Nc2cncc(C(F)(F)F)n2)c1C(=O)Nc1ccc(F)c(OC2CCN(C(=O)OC(C)(C)C)CC2)c1 [Example 168, tert-butyl 4-(2-fluoro-5-{[(3-methyl-5-{[6-(trifluoromethyl)pyrazin-2-yl]amino}-1,2-thiazol-4-yl)carbonyl]amino}phenoxy)piperidine-1-carboxylate]

More lines, now with the values behind:

SMILES	IC50 [µM]
CCCN1CC[C@H](Oc2ccc(NC(=O)c3c(C)nsc3Nc3cnc(C(F)(F)F)cn3)cn2)[C@H](F)C1 [Example 147, N-(6-{[(3R,4S)-3-fluoro-1-propylpiperidin-4-yl]oxy}pyridin-3-yl)-3-methyl-5-{[5-(trifluoromethyl)pyrazin-2-yl]amino}-1,2-thiazole-4-carboxamide]	> 20
Cc1nsc(Nc2cnc(C(F)(F)F)cn2)c1C(=O)Nc1ccc(OC[C@@H]2CCN(CC(F)(F)F)C2)nc1 [Example 128, 3-Methyl-N-(6-{[(3R)-1-(2,2,2-trifluoroethyl)pyrrolidin-3-yl]methoxy}pyridin-3-yl)-5-{[5-(trifluoromethyl)pyrazin-2-yl]amino}-1,2-thiazole-4-carboxamide]	> 20
Cc1nsc(Nc2cc(C#N)ccn2)c1C(=O)Nc1ccc(Oc2cccnc2)nc1 [Example 119, 5-[(4-Cyanopyridin-2-yl)amino]-3-methyl-N-[6-(pyridin-3-yloxy)pyridin-3-yl]-1,2-thiazole-4-carboxamide]	≥ 20
Cc1nsc(Nc2cnc3ccccc3n2)c1C(=O)Nc1cccc(C(=O)N[C@H](C(=O)O)[C@@H](C)OC(C)(C)C)c1 [Example 104, O-tert-Butyl-N-[3-({[3-methyl-5-(quinoxalin-2-ylamino)-1,2-thiazol-4-yl]-carbonyl}amino)benzoyl]threonine]	≥ 20
COC(=O)CNC(=O)c1cccc(NC(=O)c2c(C)nsc2Nc2cnc3ccccc3n2)c1 [Example 100, Methyl N-[3-({[3-methyl-5-(quinoxalin-2-ylamino)-1,2-thiazol-4-yl]carbonyl}amino)-benzoyl]glycinate]	≥ 20
Cc1nsc(Nc2cnc3ccccc3n2)c1C(=O)Nc1ccc(S(C)(=O)=O)cc1 [Example 115, 3-Methyl-N-[4-(methylsulfonyl)phenyl]-5-(quinoxalin-2-ylamino)-1,2-thiazole-4-carboxamide]	≥ 20
Cc1nsc(Nc2cc(C#N)ccn2)c1C(=O)Nc1cccc(C(=O)N2CCCC2)c1 [Example 114, 5-[(4-Cyanopyridin-2-yl)amino]-3-methyl-N-[3-(pyrrolidin-1-ylcarbonyl)phenyl]-1,2-thiazole-4-carboxamide]	≥ 20
Cc1nsc(Nc2cnc(C(F)(F)F)cn2)c1C(=O)Nc1ccc(O[C@H]2CCN(CC(F)F)C[C@H]2F)nc1 [Example 144, N-(6-{[(3R,4S)-1-(2,2-difluoroethyl)-3-fluoropiperidin-4-yl]oxy}pyridin-3-yl)-3-methyl-5-{[5-(trifluoromethyl)pyrazin-2-yl]amino}-1,2-thiazole-4-carboxamide]	> 20
CC(=O)N1CCC(Oc2ccc(NC(=O)c3c(C)nsc3Nc3cnc(C(F)(F)F)cn3)cn2)CC1 [Example 11, N-{6-[(1-Acetylpiperidin-4-yl)oxy]pyridin-3-yl}-3-methyl-5-{[5-(trifluoromethyl)-pyrazin-2-yl]amino}-1,2-thiazole-4-carboxamide]	≥ 20
Cc1nsc(Nc2cnc3ccccc3n2)c1C(=O)Nc1cccc(-c2nnc(C(C)(C)C)o2)c1 [Example 107, N-[3-(5-tert-Butyl-1,3,4-oxadiazol-2-yl)phenyl]-3-methyl-5-(quinoxalin-2-ylamino)-1,2-thiazole-4-carboxamide]	≥ 20
Cc1nsc(Nc2cnc(C(F)(F)F)cn2)c1C(=O)Nc1ccc(C(=O)O)cc1 [Example 97, 4-{[(3-Methyl-5-{[5-(trifluoromethyl)pyrazin-2-yl]amino}-1,2-thiazol-4-yl)carbony]-amino}benzoic acid]	≥ 20
Cc1nsc(Nc2cnc(C(F)(F)F)cn2)c1C(=O)Nc1ccc(OCC2CCN(CC(F)(F)F)C2)nc1 (stereo not shown) [Example 123, 3-Methyl-N-(6-{[1-(2,2,2-trifluoroethyl)pyrrolidin-3-yl]methoxy}pyridin-3-yl)-5-{[5-(trifluoromethyl)pyrazin-2-yl]amino}-1,2-thiazole-4-carboxamide]	≥ 20
Cc1nsc(Nc2cnc(C(F)(F)F)cn2)c1C(=O)Nc1ccc(OCC2CCN(CC(F)F)C2)nc1 (stereo not shown) [Example 122, N-(6-{[1-(2,2-difluoroethyl)pyrrolidin-3-yl]methoxy}pyridin-3-yl)-3-methyl-5-{[5-(trifluoromethyl)pyrazin-2-yl]amino}-1,2-thiazole-4-carboxamide]	≥ 20

Reference: patent US20170334899A1, “AMINO-SUBSTITUTED ISOTHIAZOLES” (Bayer Pharma Aktiengesellschaft, priority 2014, published 2017)
